# Patent publication US5843449A, “Proteins and novel peptides derived from autoantigen for use in immunotherapy of autoimmune diseases” (Akzo Nobel N.V., priority 1996, dated 1998)
# Like-named read-outs stand apart in the source and are kept apart here. Residues, ends and D or L forms follow the SMILES beside them.
# Legend:
# DR4Dw14 HLA-DR molecules = experiment: HLA-DR peptide binding assay (competition with biotinylated marker peptide), DR4Dw14; set-up: species or system human; settings: pH = 5, 50 nM biotin-spacer-IHA(307-319)F marker peptide
# PBMC from RA patients = experiment: Proliferative responses of PBMC from RA patients (3H-thymidine); type: cell-based, human; settings: 10% autologous serum
# Description: Peripheral blood mononuclear cells (PBMC) from patients who were diagnosed as suffering from RA according to the American Rheumatism Association (ARA) criteria (Arnett et al., Arthritis Rheum. 31:315, 1988) were collected.
# (§1) PBMC obtained from heparinized venous peripheral blood were isolated by standard centrifugation on a Ficoll-Paque gradient. […] Cultures were incubated in a total volume of 210 μl for 7 days at 37° C. in a humidified atmosphere of 5% CO2. Cultures were pulsed during the last 18 hours with 0.25 μCi^3 H-thymidine.
# [1] = molecular target: T1, DR4Dw4 (DRB1*0401) HLA-DR molecules (Homo sapiens, UniProt P01903+P01911, A100K/A169T/F76Y/I96L/K127E/L162R/M171V/N62H/P40V/Q125Y/R42H/S133A/S149N/S66Y/V115G/V209L/W38E); experiment: HLA-DR peptide binding assay (competition with biotinylated marker peptide), DR4Dw4; settings: pH = 5, 50 nM biotin-spacer-IHA(307-319)F marker peptide
# T1 construct: endogenous in cells; host or cells: BSM, EBV-transformed B-cell line
# PBMC from healthy donors = experiment: Proliferative responses of PBMC from healthy donors (3H-thymidine); type: cell-based, human; settings: 10% autologous serum
# Description: PBMC's from healthy donors carrying the DR4Dw4 (DRB1*0401) or the DR1 specificity were collected as a control.
# as §1
structure (smiles),measurement,setting,value
CC(C)C[C@H](NC(=O)[C@@H](NC(=O)[C@H](Cc1ccccc1)NC(=O)[C@H](CO)NC(=O)[C@@H](N)CCCNC(=N)N)[C@@H](C)O)C(=O)N[C@@H](C)C(=O)N[C@@H](CO)C(=O)N[C@@H](CO)C(=O)N[C@@H](CCC(=O)O)C(=O)N[C@H](C(=O)NCC(=O)N[C@H](C(=O)NCC(=O)O)C(C)C)[C@@H](C)O [Peptide 2] (H-RSFTLASSETGVG-OH),IC50,"DR4Dw14 HLA-DR molecules; DOT Blot, densitometer, read-out: ^R IC50, DR4Dw14, DOT Blot",190 nM
same,IC50,"DR4Dw14 HLA-DR molecules; SDS-PAGE, visual inspection, read-out: ^R IC50, DR4Dw14, SDS-PAGE",200 nM
same,"Proliferative response, stimulation index (SI)","PBMC from RA patients; RA patient 191-03 (HR), disease state IV, peptide 10 μg/l",1
same,"Proliferative response, stimulation index (SI)","PBMC from RA patients; RA patient 191-03 (HR), disease state IV, peptide 100 μg/l",< 2
same,"Proliferative response, stimulation index (SI)","PBMC from RA patients; RA patient 215-0 (HR), disease state III-IV, peptide 25 μg/l",3
same,"Proliferative response, stimulation index (SI)","PBMC from RA patients; RA patient 215-0 (HR), disease state III-IV, peptide 100 μg/l",19
same,"Proliferative response, stimulation index (SI)","PBMC from RA patients; RA patient 240-0 (HR), disease state II-III, peptide 25 μg/l",5
same,"Proliferative response, stimulation index (SI)","PBMC from RA patients; RA patient 240-0 (HR), disease state II-III, peptide 100 μg/l",6
same,"Proliferative response, stimulation index (SI)","PBMC from RA patients; RA patient 242-0 (HR), disease state I, peptide 25 μg/l",4
same,"Proliferative response, stimulation index (SI)","PBMC from RA patients; RA patient 243-0 (R), disease state III, peptide 10 μg/l",1
same,"Proliferative response, stimulation index (SI)","PBMC from RA patients; RA patient 243-0 (R), disease state III, peptide 100 μg/l",6
same,"Proliferative response, stimulation index (SI)","PBMC from RA patients; RA patient 247-0 (R), disease state III, peptide 10 μg/l",1
same,"Proliferative response, stimulation index (SI)","PBMC from RA patients; RA patient 247-0 (R), disease state III, peptide 100 μg/l",2
same,"Proliferative response, stimulation index (SI)","PBMC from RA patients; RA patient 248-0 (R), disease state III, peptide 10 μg/l",1
same,"Proliferative response, stimulation index (SI)","PBMC from RA patients; RA patient 248-0 (R), disease state III, peptide 100 μg/l",1
same,"Proliferative response, stimulation index (SI)","PBMC from RA patients; RA patient 272-0 (HR), disease state III-IV, peptide 10 μg/l",< 1
same,"Proliferative response, stimulation index (SI)","PBMC from RA patients; RA patient 272-0 (HR), disease state III-IV, peptide 100 μg/l",< 1
same,"Proliferative response, stimulation index (SI)","PBMC from RA patients; RA patient 273-0 (HR), disease state IV, peptide 10 μg/l",7
same,"Proliferative response, stimulation index (SI)","PBMC from RA patients; RA patient 273-0 (HR), disease state IV, peptide 100 μg/l",6
same,"Proliferative response, stimulation index (SI)","PBMC from RA patients; RA patient 275-0 (HR), disease state III, peptide 10 μg/l",2
same,"Proliferative response, stimulation index (SI)","PBMC from RA patients; RA patient 275-0 (HR), disease state III, peptide 100 μg/l",9
same,"Proliferative response, stimulation index (SI)","PBMC from RA patients; RA patient 276-0 (HR), disease state IV, burnt out, peptide 10 μg/l",3
same,"Proliferative response, stimulation index (SI)","PBMC from RA patients; RA patient 276-0 (HR), disease state IV, burnt out, peptide 100 μg/l",1
same,"Proliferative response, stimulation index (SI)","PBMC from RA patients; RA patient 280-0 (HR), disease state IV, burnt out, peptide 10 μg/l",1
same,"Proliferative response, stimulation index (SI)","PBMC from RA patients; RA patient 280-0 (HR), disease state IV, burnt out, peptide 100 μg/l",4
same,IC50,"[1]; DOT Blot, densitometer, read-out: ^R IC50, DR4Dw4, DOT Blot",80 nM
same,IC50,"[1]; SDS-PAGE, visual inspection, read-out: ^R IC50, DR4Dw4, SDS-PAGE",40 nM
same,"Proliferative response, stimulation index (SI)","PBMC from healthy donors; healthy donor 155-03 (NR), peptide 10 μg/ml",1
same,"Proliferative response, stimulation index (SI)","PBMC from healthy donors; healthy donor 155-03 (NR), peptide 100 μg/ml",1
same,"Proliferative response, stimulation index (SI)","PBMC from healthy donors; healthy donor 156-03 (NR), peptide 10 μg/ml",1
same,"Proliferative response, stimulation index (SI)","PBMC from healthy donors; healthy donor 156-03 (NR), peptide 100 μg/ml",< 1
same,"Proliferative response, stimulation index (SI)","PBMC from healthy donors; healthy donor 157-03 (NR), peptide 10 μg/ml",< 2
same,"Proliferative response, stimulation index (SI)","PBMC from healthy donors; healthy donor 157-03 (NR), peptide 100 μg/ml",< 2
same,"Proliferative response, stimulation index (SI)","PBMC from healthy donors; healthy donor 157-04 (R), peptide 10 μg/ml",1
same,"Proliferative response, stimulation index (SI)","PBMC from healthy donors; healthy donor 157-04 (R), peptide 100 μg/ml",< 1
same,"Proliferative response, stimulation index (SI)","PBMC from healthy donors; healthy donor 168-03 (NR), peptide 10 μg/ml",< 1
same,"Proliferative response, stimulation index (SI)","PBMC from healthy donors; healthy donor 168-03 (NR), peptide 100 μg/ml",< 1
same,"Proliferative response, stimulation index (SI)","PBMC from healthy donors; healthy donor 168.02 (NR), peptide 10 μg/ml",< 2
same,"Proliferative response, stimulation index (SI)","PBMC from healthy donors; healthy donor 168.02 (NR), peptide 100 μg/ml",< 1
same,"Proliferative response, stimulation index (SI)","PBMC from healthy donors; healthy donor 169-02 (NR), peptide 10 μg/ml",1
same,"Proliferative response, stimulation index (SI)","PBMC from healthy donors; healthy donor 169-02 (NR), peptide 100 μg/ml",1
same,"Proliferative response, stimulation index (SI)","PBMC from healthy donors; healthy donor 230-01 (NR), peptide 10 μg/ml",1
same,"Proliferative response, stimulation index (SI)","PBMC from healthy donors; healthy donor 230-01 (NR), peptide 100 μg/ml",1
same,"Proliferative response, stimulation index (SI)","PBMC from healthy donors; healthy donor 235-0 (NR), peptide 10 μg/ml",1
same,"Proliferative response, stimulation index (SI)","PBMC from healthy donors; healthy donor 235-0 (NR), peptide 100 μg/ml",< 2
same,"Proliferative response, stimulation index (SI)","PBMC from healthy donors; healthy donor 235-01 (NR), peptide 10 μg/ml",< 1
same,"Proliferative response, stimulation index (SI)","PBMC from healthy donors; healthy donor 235-01 (NR), peptide 100 μg/ml",< 1
same,"Proliferative response, stimulation index (SI)","PBMC from healthy donors; healthy donor 236-01 (NR), peptide 10 μg/ml",1
same,"Proliferative response, stimulation index (SI)","PBMC from healthy donors; healthy donor 236-01 (NR), peptide 100 μg/ml",1
same,"Proliferative response, stimulation index (SI)","PBMC from healthy donors; healthy donor 237-0 (NR), peptide 10 μg/ml",< 2
same,"Proliferative response, stimulation index (SI)","PBMC from healthy donors; healthy donor 237-0 (NR), peptide 100 μg/ml",< 1
same,"Proliferative response, stimulation index (SI)","PBMC from healthy donors; healthy donor 237-01 (NR), peptide 10 μg/ml",1
same,"Proliferative response, stimulation index (SI)","PBMC from healthy donors; healthy donor 237-01 (NR), peptide 100 μg/ml",1
same,"Proliferative response, stimulation index (SI)","PBMC from healthy donors; healthy donor 238-01 (NR), first line so labelled, peptide 10 μg/ml",1
same,"Proliferative response, stimulation index (SI)","PBMC from healthy donors; healthy donor 238-01 (NR), first line so labelled, peptide 100 μg/ml",< 1
same,"Proliferative response, stimulation index (SI)","PBMC from healthy donors; healthy donor 238-01 (NR), second line so labelled, peptide 10 μg/ml",1
same,"Proliferative response, stimulation index (SI)","PBMC from healthy donors; healthy donor 238-01 (NR), second line so labelled, peptide 100 μg/ml",1
same,"Proliferative response, stimulation index (SI)","PBMC from healthy donors; healthy donor 241-0 (NR), peptide 10 μg/ml",1
same,"Proliferative response, stimulation index (SI)","PBMC from healthy donors; healthy donor 241-0 (NR), peptide 100 μg/ml",< 1
same,"Proliferative response, stimulation index (SI)","PBMC from healthy donors; healthy donor 241-01 (R), peptide 10 μg/ml",< 1
same,"Proliferative response, stimulation index (SI)","PBMC from healthy donors; healthy donor 241-01 (R), peptide 100 μg/ml",< 1
